Test results: patent publication US11964954B1 (KING FAISAL UNIVERSITY, priority 2023, dated 2024)

Legend:
[1] = tested on: human prostate cancer cells (PC3); assay: Cytotoxicity by SRB assay, PC3 cells; format: cell-based; conditions: for IC50: mean±SD
Procedure: (§1) The human prostate cancer cells (PC3) and human osteosarcoma cells (MG-63) were obtained from Nawah Scientific Inc. (Mokatam, Cairo, Egypt) and cultured in DMEM (Dulbecco's modified eagle's medium), Gibco, USA, supplemented with fetal bovine serum (FBS) at a concentration of 10% and 100 U/mL of penicillin and streptomycin (PS). The cells were incubated at 37° C. in a humidified environment that contained 5% CO2.
(§2) Cells were seeded in 96-well plates as aliquots of 100 μL cell suspension and incubated in a complete media for 24 h. Afterward, cells were treated with N′-[(2-chlorobenzoyl)oxy]-1,3-benzothiazole-2-carboximidamide at diverse concentrations ranging from 0.01 μM to 100 μM for 72 h. Then, cells were fixed at 4° C. for one hour with 150 μL of 10% trichloroacetic acid (TCA). After washing the cells five times with distilled water, 70 μL of sulforhodamine (SRB) solution (0.4% w/v) was added and incubated for 10 min at room temperature in a dark place. Cells were washed with 1% acetic acid three times and allowed to air-dry. Then, 150 μL of Tris pH 10.5 (10 mM) was added, and the absorbance was measured at 540 nm using a BMG LABTECH®-FLUOstar Omega microplate reader (Ortenberg, Germany). Half maximal inhibitory concentrations (IC50) values were calculated for each experiment using GraphPad Prism 6 software. IC50 values were reported as mean±SD.
(§3) The inhibition was calculated using the following equation: Inhibition %=100-Average Viability

[2] = tested on: human osteosarcoma cells (MG-63); assay: Cytotoxicity by SRB assay, MG-63 cells; format: cell-based; conditions: for IC50: mean±SD
Procedure: as §1, §2, §3

[3] = tested on: Bacillus cereus, Staphylococcus aureus, Pseudomonas aeruginosa, Escherichia coli, Aspergillus flavus, Chrysosporium keratinophilum; assay: Agar plate disc-diffusion antimicrobial screening; format: cell-based; conditions: 10 μL of 10 mg/mL in DMSO per disc, result in words only
Procedure: The agar plate disc-diffusion method was applied. Sterilized filter papers (6 mm in diameter) were wetted with 10 μL of a solution of each compound to be tested, containing 10 mg/mL in DMSO, and the discs were allowed to air dry. The discs were then placed onto the surface of agar plates (nutrient agar for bacteria and Sabouraud's dextrose agar for fungi) and seeded with the test organism. Each plate contained 15 mL of the agar medium, previously seeded with 0.2 mL of the broth culture of each organism pre-grown for 18 h. The plates were incubated at 37° C. for 48 h, and 72 h for fungi. The inhibition zones were measured in mm. Discs impregnated with DMSO were used as a control, and its inhibition zone was subtracted from the tested compound actual inhibition zone.
In particular, the present N′-[(2-chlorobenzoyl)oxy]-1,3-benzothiazole-2-carboximidamide was screened against gram positive bacteria, namely Bacillus cereus and Staphylococcus aureus, and gram-negative bacterial strains, namely Pseudomonas aeruginosa and Escherichia coli, while the antifungal activity was screened against Aspergillus flavus and Chrysosporium keratinophilum.

melting point [°C] | SMILES | inhibition at 10 µg/mL ([1]; Homo sapiens, PC-3, 72 h, Prostate cancer (PC-3), 10 μg/ml, 72 h) [%] | inhibition at 100 µg/mL ([1]; Homo sapiens, PC-3, 72 h, Prostate cancer (PC-3), 100 μg/ml, 72 h) [%] | IC50 ([1]; Homo sapiens, PC-3, 72 h) [µM] | IC50 ([1]; PC-3, 72 h) [µM] | Inhibition % ([1]; Prostate cancer (PC-3), 10 μg/ml, 72 h, listed as N'-[(2-chlorobenzoyl)oxy]-1,3-benzothiazole-2-carboximidamide) [%] | inhibition at 10 µg/mL ([2]; Homo sapiens, MG-63, 72 h, Osteosarcoma (MG-63), 10 μg/ml, 72 h) [%] | inhibition at 100 µg/mL ([2]; Homo sapiens, MG-63, 72 h, Osteosarcoma (MG-63), 100 μg/ml, 72 h) [%] | IC50 ([2]; Homo sapiens, MG-63, 72 h) [µM] | IC50 ([2]; MG-63, 72 h) [µM] | Inhibition % ([2]; Osteosarcoma (MG-63), 10 μg/ml, 72 h, listed as N'-[(2-chlorobenzoyl)oxy]-1,3-benzothiazole-2-carboximidamide) [%] | antimicrobial activity [3]
110 to 112 | N/C(Cc1nc2ccccc2s1)=N\OC(=O)c1ccccc1Cl | 95 | 96 | < 4 | 2.69 ± 0.03 | 95.61 | 95 | 91.3 | < 4 | 3.45 | 90.17 | excellent antimicrobial activities
 | COc1cccc2c1C(=O)c1c(O)c3c(c(O)c1C2=O)C[C@@](O)(C(=O)CO)C[C@@H]3O[C@H]1C[C@H](N)[C@H](O)[C@H](C)O1 [DOX, Doxorubicin, reference compound] |  |  | 7.6 ± 0.45 |  |  |  |  | 9.4 ± 1.1 |  |  | 
